Key:
umbrella sedge = test: Test C flooded paddy test; type: in vivo, Cyperus difformis; conditions: Flood
Procedure, shortened: (§1)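 Test compounds are applied straight into paddy water held 3 cm above the soil surface, with that flood maintained for the whole test. After 13 to 15 days in the greenhouse, each species is scored visually relative to controls.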

soybean = test: Test C pre-/postemergence test; type: in vivo, Glycine max; conditions: Postemergence; for Plant response rating, Soybean: scale 0 to 100, 0 no effect, 100 complete control
Text: (§2) Seeds of plant species selected from blackgrass (Alopecurus myosuroides), downy brome (Bromus tectorum), green foxtail (Setaria viridis), Italian ryegrass (Lolium multiflorum), wheat (Triticum aestivum), wild oat (Avena fatua), catchweed bedstraw (Galium aparine), Russian thistle (Salsola kali), […] (Cynodon dactylon), Surinam grass (Brachiaria decumbens), cocklebur (Xanthium strumarium), corn (Zea mays), crabgrass (Digitaria sanguinalis), woolly cupgrass (Eriochloa villosa), giant foxtail (Setaria faberii), Goosegrass (Eleusin indica), johnsongrass (Sorghum halepense), kochia (Kochia scoparia), lambsquarters (Chenopodium album), morningglory (Ipomoea coccinea), eastern black nightshade (Solanum ptycanthum), yellow nutsedge (Cyperus esculentus), pigweed (Amaranthus retroflexus), common ragweed (Ambrosia elation), soybean (Glycine max), common (oilseed) sunflower (Helianthus annuus), and velvetleaf (Abutilon theophrasti) were planted and treated preemergence with test chemicals formulated in a non-phytotoxic solvent mixture which included a surfactant. At the same time, plants selected from these crop and weed species and also winter barley (Hordeum vulgare), canarygrass (Phalaris minor), and chickweed (Stellaria media) were treated with postemergence applications of some of the test chemicals formulated in the same manner. Plants ranged in height from 2 to 18 cm (1- to 4-leaf stage) for postemergence treatments. […] At time of treatment, test pots were flooded to 3 cm above the soil surface, treated by application of test compounds directly to the paddy water, and then maintained at that water depth for the duration of the test. […] A dash (-) response means no test result.

barnyardgrass [1] = test: Test C flooded paddy test; type: in vivo, Echinochloa crus-galli; conditions: Flood
Procedure, shortened: as §1

Goosegrass = test: Test C pre-/postemergence test; type: in vivo, Eleusin indica; conditions: Postemergence; for Plant response rating, Goosegrass: scale 0 to 100, 0 no effect, 100 complete control
Text: as §2

kochia = test: Test C pre-/postemergence test; type: in vivo, Kochia scoparia; conditions: Postemergence; for Plant response rating, Kochia: scale 0 to 100, 0 no effect, 100 complete control
Text: as §2

crabgrass [2] = test: Test C pre-/postemergence test; type: in vivo, Digitaria sanguinalis; conditions: Postemergence; for Plant response rating, Crabgrass, Large: scale 0 to 100, 0 no effect, 100 complete control
Text: as §2

pigweed = test: Test C pre-/postemergence test; type: in vivo, Amaranthus retroflexus; conditions: Postemergence; for Plant response rating, Pigweed: scale 0 to 100, 0 no effect, 100 complete control
Text: as §2

Surinam grass = test: Test C pre-/postemergence test; type: in vivo, Brachiaria decumbens; conditions: Postemergence; for Plant response rating, Surinam Grass: scale 0 to 100, 0 no effect, 100 complete control
Text: as §2

lambsquarters = test: Test C pre-/postemergence test; type: in vivo, Chenopodium album; conditions: Postemergence; for Plant response rating, Lambsquarters: scale 0 to 100, 0 no effect, 100 complete control
Text: as §2

bermudagrass = test: Test C pre-/postemergence test; type: in vivo, Cynodon dactylon; conditions: Postemergence; for Plant response rating, Bermudagrass: scale 0 to 100, 0 no effect, 100 complete control
Text: as §2

morningglory = test: Test A pre-/postemergence greenhouse test; type: in vivo, Ipomoea spp.; conditions: for Plant response rating, Morningglory: 0 to 100 scale where 0 is no effect and 100 is complete control; for Morningglory plant response rating: 0 to 100 scale
Procedure, shortened: (§3)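 Herbicidal effect is a visual injury score given about ten days post-treatment by comparison with untreated controls. Preemergence plots received a directed spray onto sown loam–sand soil; postemergence plants, at the one- to two-leaf stage and 2–10 cm tall, were sprayed at the same time.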

cocklebur = test: Test C pre-/postemergence test; type: in vivo, Xanthium strumarium; conditions: Postemergence; for Plant response rating, Cocklebur: scale 0 to 100, 0 no effect, 100 complete control
Text: as §2

giant foxtail = test: Test A pre-/postemergence greenhouse test; type: in vivo, Setaria faberi; conditions: for Plant response rating, Foxtail, Giant: 0 to 100 scale where 0 is no effect and 100 is complete control; for Foxtail, Giant plant response rating: 0 to 100 scale
Procedure, shortened: as §3

Italian ryegrass = test: Test C pre-/postemergence test; type: in vivo, Lolium multiflorum; conditions: Postemergence; for Plant response rating, Ryegrass, Italian: scale 0 to 100, 0 no effect, 100 complete control
Text: as §2

barnyardgrass [3] = test: Test A pre-/postemergence greenhouse test; type: in vivo, Echinochloa crus-galli; conditions: for Plant response rating, Barnyardgrass: 0 to 100 scale where 0 is no effect and 100 is complete control; for Barnyardgrass plant response rating: 0 to 100 scale
Procedure, shortened: as §3

crabgrass [4] = test: Test A pre-/postemergence greenhouse test; type: in vivo, Digitaria sanguinalis; conditions: for Plant response rating, Crabgrass, Large: 0 to 100 scale where 0 is no effect and 100 is complete control; for Crabgrass, Large plant response rating: 0 to 100 scale
Procedure, shortened: as §3

[5] = 62 g ai/ha, scale 0 to 100 (0 no effect, 100 complete control)
[6] = 250 g ai/ha, scale 0 to 100, 0 no effect, 100 complete control, 13 to 15 days
[7] = Postemergence, 500 g ai/ha, 0 is no effect, 100 is complete control
[8] = Preemergence, 125 g ai/ha, 0 no effect, 100 complete control

CCn1nc(C(F)(F)F)c(C(C)S(=O)(=O)c2cccc[n+]2[O-])c1OCC(F)(F)F (stereo not drawn) [Compound 69]
35: Plant response rating, Soybean (soybean; 250 g ai/ha)
75: Plant response rating, Barnyardgrass (barnyardgrass [1]; [6])
30: Plant response rating (0 to 100), Soybean (soybean; 62 g ai/ha) | Plant response rating, Soybean (soybean; 125 g ai/ha)
70: Morningglory plant response rating (morningglory; [7])
80: Plant response rating, Foxtail, Giant (giant foxtail; Postemergence, 125 g ai/ha) | Plant response rating, Barnyardgrass (barnyardgrass [3]; Postemergence, 125 g ai/ha) | Plant response rating, Crabgrass, Large (crabgrass [4]; Postemergence, 125 g ai/ha)
50: Plant response rating, Bermudagrass (bermudagrass; 250 g ai/ha) | Morningglory plant response rating (morningglory; [8]) | Plant response rating, Ryegrass, Italian (Italian ryegrass; 125 g ai/ha)
90: Barnyardgrass plant response rating (barnyardgrass [3]; [7]) | Crabgrass, Large plant response rating (crabgrass [4]; [7])
95: Plant response rating, Ryegrass, Italian (Italian ryegrass; 250 g ai/ha)
100: Plant response rating, Sedge, Umbrella (umbrella sedge; [5]) | Plant response rating, Sedge, Umbrella (umbrella sedge; [6]) | Plant response rating, Morningglory (morningglory; Preemergence, 500 g ai/ha) | Foxtail, Giant plant response rating (giant foxtail; [7]) | Foxtail, Giant plant response rating (giant foxtail; [8]) | Plant response rating, Foxtail, Giant (giant foxtail; Preemergence, 500 g ai/ha) | Plant response rating, Barnyardgrass (barnyardgrass [3]; Preemergence, 500 g ai/ha) | Plant response rating, Crabgrass, Large (crabgrass [4]; Preemergence, 500 g ai/ha)
0: Plant response rating (0 to 100), Soybean (soybean; 31 g ai/ha) | Plant response rating, Barnyardgrass (barnyardgrass [1]; [5]) | Plant response rating (0 to 100), Goosegrass (Goosegrass; 31 g ai/ha) | Plant response rating, Goosegrass (Goosegrass; 62 g ai/ha) | Plant response rating, Goosegrass (Goosegrass; 125 g ai/ha) | Plant response rating (0 to 100), Kochia (kochia; 31 g ai/ha) | Plant response rating, Kochia (kochia; 62 g ai/ha) | Plant response rating, Kochia (kochia; 125 g ai/ha) | Plant response rating, Kochia (kochia; 250 g ai/ha) | Plant response rating (0 to 100), Crabgrass, Large (crabgrass [2]; 31 g ai/ha) | Plant response rating, Crabgrass, Large (crabgrass [2]; 62 g ai/ha) | Plant response rating, Crabgrass, Large (crabgrass [2]; 125 g ai/ha) | Plant response rating, Crabgrass, Large (crabgrass [2]; 250 g ai/ha) | Plant response rating (0 to 100), Pigweed (pigweed; 31 g ai/ha) | Plant response rating (0 to 100), Pigweed (pigweed; 62 g ai/ha) | Plant response rating, Pigweed (pigweed; 125 g ai/ha) | Plant response rating, Pigweed (pigweed; 250 g ai/ha) | Plant response rating (0 to 100), Surinam Grass (Surinam grass; 31 g ai/ha) | Plant response rating (0 to 100), Surinam Grass (Surinam grass; 62 g ai/ha) | Plant response rating, Surinam Grass (Surinam grass; 125 g ai/ha) | Plant response rating, Surinam Grass (Surinam grass; 250 g ai/ha) | Plant response rating (0 to 100), Lambsquarters (lambsquarters; 31 g ai/ha) | Plant response rating, Lambsquarters (lambsquarters; 62 g ai/ha) | Plant response rating, Lambsquarters (lambsquarters; 125 g ai/ha) | Plant response rating, Lambsquarters (lambsquarters; 250 g ai/ha) | Plant response rating (0 to 100), Bermudagrass (bermudagrass; 31 g ai/ha) | Plant response rating, Bermudagrass (bermudagrass; 62 g ai/ha) | Plant response rating, Bermudagrass (bermudagrass; 125 g ai/ha) | Plant response rating (0 to 100), Cocklebur (cocklebur; 31 g ai/ha) | Plant response rating, Cocklebur (cocklebur; 62 g ai/ha) | Plant response rating, Cocklebur (cocklebur; 125 g ai/ha) | Plant response rating, Cocklebur (cocklebur; 250 g ai/ha) | Plant response rating (0 to 100), Ryegrass, Italian (Italian ryegrass; 31 g ai/ha)
40: Plant response rating, Goosegrass (Goosegrass; 250 g ai/ha) | Plant response rating, Morningglory (morningglory; Postemergence, 125 g ai/ha) | Plant response rating (0 to 100), Ryegrass, Italian (Italian ryegrass; 62 g ai/ha) | Crabgrass, Large plant response rating (crabgrass [4]; [8])
60: Barnyardgrass plant response rating (barnyardgrass [3]; [8])

From patent US20100298141A1, “SUBSTITUTED PYRIDINE N-OXIDE HERBICIDES” (E. I. DU PONT DE NEMOURS AND COMPANY, priority 2007, published 2010)
